Patent US4656166A, “Antibiotic compounds derived from cephalosporins, process for their production and pharmaceutical compositions” (Sanofi, priority 1983, dated 1987)
≈ marks a conversion by molar mass, not a printed value.

Legend:
Assay type in all cases: cell-based
Escherichia coli SOL 90 = assay: MIC, in vitro dilution method, Escherichia coli SOL 90 (Table III); conditions: SOL90; Escherichia coli SOL 90; dilution method; read-out: MIC
Description: (§1) The products of the invention have been studied as regards their pharmacological properties and, more especially, bacteriostatic action. This has been determined in vitro by the dilution method, and the study was on Gram negative strains.
(§2) Results, expressed in minimum inhibiting concentrations (MIC-- μg/ml), are collected in the following table (Table III).

[1] = test system: Proteus vulgaris RL 99 bis; assay: MIC, in vitro dilution method, Proteus vulgaris RL 99 bis (Table III); conditions: RL99BIS; Proteus vulgaris RL 99 bis; dilution method; read-out: MIC
Description: as §1, §2

Citrobacter RL 49 = assay: MIC, in vitro dilution method, Citrobacter RL 49 (Table III); conditions: RL49; Citrobacter RL 49; dilution method; read-out: MIC
Description: as §1, §2

Klebsiella RO 30 = assay: MIC, in vitro dilution method, Klebsiella RO 30 (Table III); conditions: RO30; Klebsiella RO 30; dilution method; read-out: MIC
Description: as §1, §2

Enterobacter RO 154 = assay: MIC, in vitro dilution method, Enterobacter RO 154 (Table III); conditions: RO154; Enterobacter RO 154; dilution method; read-out: MIC
Description: as §1, §2

Pseudomonas RL 112 = assay: MIC, in vitro dilution method, Pseudomonas RL 112 (Table III); conditions: RL112
Description: as §1, §2

Serratia RL 72 = assay: MIC, in vitro dilution method, Serratia RL 72 (Table III); conditions: RL72
Description: as §1, §2

| Structure (SMILES) | MIC (Escherichia coli SOL 90) | MIC [1] | MIC (Citrobacter RL 49) | MIC (Klebsiella RO 30) | MIC (Enterobacter RO 154) | MIC (Pseudomonas RL 112) | MIC (Serratia RL 72) |
| --- | --- | --- | --- | --- | --- | --- | --- |
| C[C@H](N)C(=O)OCC1=C(C(=O)O)N2C(=O)C(NC(=O)/C(=N\OC(C)(C)C(=O)O)c3csc(N)n3)C2[S+]([O-])C1 (stereo partly drawn) [41 733] | 2 µg/mL (≈ 3.49 µM) | 0.5 µg/mL (≈ 0.873 µM) | 2 µg/mL (≈ 3.49 µM) | 1 µg/mL (≈ 1.75 µM) | 1 µg/mL (≈ 1.75 µM) | 8 µg/mL (≈ 14 µM) | 8 µg/mL (≈ 14 µM) |
| CC(C)[C@H](N)C(=O)OCC1=C(C(=O)O)N2C(=O)C(NC(=O)/C(=N\OC(C)(C)C(=O)O)c3csc(N)n3)C2[S+]([O-])C1 (stereo partly drawn) [41 806] | 1 µg/mL (≈ 1.66 µM) | 0.5 µg/mL (≈ 0.832 µM) | 1 µg/mL (≈ 1.66 µM) | 0.5 µg/mL (≈ 0.832 µM) | 8 µg/mL (≈ 13.3 µM) | 8 µg/mL (≈ 13.3 µM) | 4 µg/mL (≈ 6.66 µM) |
| CC(C)(O/N=C(\C(=O)NC1C(=O)N2C(C(=O)O)=C(COC(=O)CCCCCCCN)C[S+]([O-])C12)c1csc(N)n1)C(=O)O (stereo not drawn) [41 856] | 0.5 µg/mL (≈ 0.778 µM) | ≤ 0.12 µg/mL | 2 µg/mL (≈ 3.11 µM) | 0.25 µg/mL (≈ 0.389 µM) | 4 µg/mL (≈ 6.22 µM) | 16 µg/mL (≈ 24.9 µM) | 2 µg/mL (≈ 3.11 µM) |
| CC(C)(ON=C(C(=O)NC1C(=O)N2C(C(=O)O)=C(COC(=O)c3ccc(CN)c(F)c3)C[S+]([O-])C12)c1csc(N)n1)C(=O)O (stereo not drawn) [42 581] | 0.125 µg/mL (≈ 0.192 µM) | – | – | 0.125 µg/mL (≈ 0.192 µM) | 2 µg/mL (≈ 3.06 µM) | 4 µg/mL (≈ 6.13 µM) | – |
| CNCc1ccc(C(=O)OCC2=C(C(=O)O)N3C(=O)C(NC(=O)C(=NOC(C)(C)C(=O)O)c4csc(N)n4)C3[S+]([O-])C2)cc1F (stereo not drawn) [42 582] | 0.25 µg/mL (≈ 0.375 µM) | – | – | 0.25 µg/mL (≈ 0.375 µM) | 2 µg/mL (≈ 3 µM) | 8 µg/mL (≈ 12 µM) | – |
| CNCC(=O)Nc1cccc(C(=O)OCC2=C(C(=O)O)N3C(=O)C(NC(=O)C(=NOC(C)(C)C(=O)O)c4csc(N)n4)C3[S+]([O-])C2)c1 (stereo not drawn) [42 583] | 1 µg/mL (≈ 1.45 µM) | – | – | 0.5 µg/mL (≈ 0.723 µM) | 4 µg/mL (≈ 5.78 µM) | 8 µg/mL (≈ 11.6 µM) | – |
| CNCC(=O)Nc1ccc(C(=O)OCC2=C(C(=O)O)N3C(=O)C(NC(=O)C(=NOC(C)(C)C(=O)O)c4csc(N)n4)C3[S+]([O-])C2)cc1 (stereo not drawn) [42 584] | 0.25 µg/mL (≈ 0.361 µM) | – | – | 0.25 µg/mL (≈ 0.361 µM) | 2 µg/mL (≈ 2.89 µM) | 4 µg/mL (≈ 5.78 µM) | – |
| Cc1c(NC(=O)CN)cccc1C(=O)OCC1=C(C(=O)O)N2C(=O)C(NC(=O)C(=NOC(C)(C)C(=O)O)c3csc(N)n3)C2[S+]([O-])C1 (stereo not drawn) [42 585] | 0.25 µg/mL (≈ 0.361 µM) | – | – | 0.25 µg/mL (≈ 0.361 µM) | 8 µg/mL (≈ 11.6 µM) | 4 µg/mL (≈ 5.78 µM) | – |
| Cc1c(NC(=O)CCN)cccc1C(=O)OCC1=C(C(=O)O)N2C(=O)C(NC(=O)C(=NOC(C)(C)C(=O)O)c3csc(N)n3)C2[S+]([O-])C1 (stereo not drawn) [42 586] | 0.25 µg/mL (≈ 0.354 µM) | – | – | 0.25 µg/mL (≈ 0.354 µM) | 16 µg/mL (≈ 22.7 µM) | 4 µg/mL (≈ 5.67 µM) | – |
| CC(C)(ON=C(C(=O)NC1C(=O)N2C(C(=O)O)=C(COC(=O)c3csc(NC(=O)CCN)n3)C[S+]([O-])C12)c1csc(N)n1)C(=O)O (stereo not drawn) [42 587] | 0.25 µg/mL (≈ 0.358 µM) | – | – | 0.25 µg/mL (≈ 0.358 µM) | 8 µg/mL (≈ 11.4 µM) | 4 µg/mL (≈ 5.72 µM) | – |
| CN(C(=O)CN)c1ccc(C(=O)OCC2=C(C(=O)O)N3C(=O)C(NC(=O)C(=NOC(C)(C)C(=O)O)c4csc(N)n4)C3[S+]([O-])C2)cc1 (stereo not drawn) [42 657] | 0.25 µg/mL (≈ 0.361 µM) | – | – | 0.25 µg/mL (≈ 0.361 µM) | 4 µg/mL (≈ 5.78 µM) | 8 µg/mL (≈ 11.6 µM) | – |
| NCCC(=O)Nc1ccc(C(=O)OCC2=C(C(=O)O)N3C(=O)C(NC(=O)C(=NOC4(C(=O)O)CCC4)c4csc(N)n4)C3[S+]([O-])C2)cc1 (stereo not drawn) [42 658] | 0.125 µg/mL (≈ 0.178 µM) | – | – | 0.125 µg/mL (≈ 0.178 µM) | 8 µg/mL (≈ 11.4 µM) | 4 µg/mL (≈ 5.68 µM) | – |
| CC(C)(ON=C(C(=O)NC1C(=O)N2C(C(=O)O)=C(COC(=O)c3ccc(CN)c(Br)c3)C[S+]([O-])C12)c1csc(N)n1)C(=O)O (stereo not drawn) [42 676] | 0.25 µg/mL (≈ 0.35 µM) | – | – | 0.25 µg/mL (≈ 0.35 µM) | 2 µg/mL (≈ 2.8 µM) | 8 µg/mL (≈ 11.2 µM) | – |
| CC(C)(ON=C(C(=O)NC1C(=O)N2C(C(=O)O)=C(COC(=O)c3cccc(NC(=O)CCCN)c3)C[S+]([O-])C12)c1csc(N)n1)C(=O)O (stereo not drawn) [42 687] | 2 µg/mL (≈ 2.83 µM) | – | – | 1 µg/mL (≈ 1.42 µM) | 4 µg/mL (≈ 5.67 µM) | 8 µg/mL (≈ 11.3 µM) | – |
| CC(C)(ON=C(C(=O)NC1C(=O)N2C(C(=O)O)=C(COC(=O)c3ccc(NC(=O)CCCN)cc3)C[S+]([O-])C12)c1csc(N)n1)C(=O)O (stereo not drawn) [42 688] | 0.125 µg/mL (≈ 0.177 µM) | – | – | 0.25 µg/mL (≈ 0.354 µM) | 4 µg/mL (≈ 5.67 µM) | 4 µg/mL (≈ 5.67 µM) | – |
| CC(C)(ON=C(C(=O)NC1C(=O)N2C(C(=O)O)=C(COC(=O)c3ccc(NC(=O)CCCCN)cc3)C[S+]([O-])C12)c1csc(N)n1)C(=O)O (stereo not drawn) [42 689] | 0.125 µg/mL (≈ 0.174 µM) | – | – | 0.25 µg/mL (≈ 0.347 µM) | 4 µg/mL (≈ 5.56 µM) | 4 µg/mL (≈ 5.56 µM) | – |
| Cc1nc(NC(=O)CN)sc1C(=O)OCC1=C(C(=O)O)N2C(=O)C(NC(=O)C(=NOC(C)(C)C(=O)O)c3csc(N)n3)C2[S+]([O-])C1 (stereo not drawn) [42 690] | 0.5 µg/mL (≈ 0.716 µM) | – | – | 0.5 µg/mL (≈ 0.716 µM) | 8 µg/mL (≈ 11.4 µM) | 4 µg/mL (≈ 5.72 µM) | – |
| CC(N)C(=O)N1CCC(C(=O)OCC2=C(C(=O)O)N3C(=O)C(NC(=O)C(=NOC(C)(C)C(=O)O)c4csc(N)n4)C3[S+]([O-])C2)CC1 (stereo not drawn) [42 781] | 0.25 µg/mL (≈ 0.366 µM) | – | – | 0.125 µg/mL (≈ 0.183 µM) | 2 µg/mL (≈ 2.93 µM) | 4 µg/mL (≈ 5.85 µM) | – |
